In ChEMBL document CHEMBL3792292, “Development of a potent and selective FLT3 kinase inhibitor by systematic expansion of a non-selective fragment-screening hit” (Bioorg Med Chem Lett, 2016):
In brackets after ≈: the same amount, converted by molar mass.

Legend:
CYP2D6 = CYP2D6 (Homo sapiens, UniProt P10635); experiment: Inhibition of human CYP2D6 at 10 uM relative to control; format: ADME
Homo sapiens [1] = organism: Homo sapiens; experiment: Selectivity ratio of IC50 for human N-terminal GST-tagged HGK catalytic domain (1 to 328 residues) expressed in baculovirus expression system to IC50 for human N-terminal GST-tagged FLT3 cytoplasmic domain (564 to 993 residues) expressed in baculovirus expression system
CYP1A2 = CYP1A2 (Homo sapiens, UniProt P05177); experiment: Inhibition of human recombinant CYP1A2 using CEC as substrate at 10 uM after 30 mins by fluorimetry relative to control; format: ADME; conditions: recombinant CYP1A2, probe CEC
Homo sapiens [2] = organism: Homo sapiens; experiment: Selectivity ratio of IC50 for human N-terminal GST-tagged TRKA cytoplasmic domain (436 to 790 residues) expressed in baculovirus expression system to IC50 for human N-terminal GST-tagged FLT3 cytoplasmic domain (564 to 993 residues) expressed in baculovirus expression system
[3] = target: Receptor-type tyrosine-protein kinase FLT3 (Homo sapiens) (UniProt P36888); experiment: Inhibition of FLT3 autophosphorylation at Tyr-596 in human MV4-11 cells after 1.5 hrs by Western blot analysis; format: cell-based
[4] = Aqueous solubility in pH 7.4 PBS buffer at 200 uM after 24 hrs by UV-visible HPLC based shake flask method; format: physicochemical; conditions: PBS buffer pH 7.4, pH 7.4

Chain of CYP2D6 (P10635 whole entry, the tested form may be a part): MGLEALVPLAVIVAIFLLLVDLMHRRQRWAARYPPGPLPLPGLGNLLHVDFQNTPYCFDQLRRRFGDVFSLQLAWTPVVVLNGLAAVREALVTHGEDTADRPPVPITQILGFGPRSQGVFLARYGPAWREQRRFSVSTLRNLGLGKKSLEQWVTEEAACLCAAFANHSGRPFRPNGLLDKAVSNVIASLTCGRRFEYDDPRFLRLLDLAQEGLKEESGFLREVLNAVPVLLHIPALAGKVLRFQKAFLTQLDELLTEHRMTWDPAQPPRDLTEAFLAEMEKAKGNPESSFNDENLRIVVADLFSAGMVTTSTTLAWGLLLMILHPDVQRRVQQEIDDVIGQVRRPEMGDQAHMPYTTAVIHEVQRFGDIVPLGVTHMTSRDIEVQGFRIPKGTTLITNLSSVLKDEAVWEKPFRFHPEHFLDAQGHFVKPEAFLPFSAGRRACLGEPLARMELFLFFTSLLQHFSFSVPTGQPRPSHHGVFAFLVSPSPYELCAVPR
Chain of CYP1A2 (P05177 whole entry, the tested form may be a part): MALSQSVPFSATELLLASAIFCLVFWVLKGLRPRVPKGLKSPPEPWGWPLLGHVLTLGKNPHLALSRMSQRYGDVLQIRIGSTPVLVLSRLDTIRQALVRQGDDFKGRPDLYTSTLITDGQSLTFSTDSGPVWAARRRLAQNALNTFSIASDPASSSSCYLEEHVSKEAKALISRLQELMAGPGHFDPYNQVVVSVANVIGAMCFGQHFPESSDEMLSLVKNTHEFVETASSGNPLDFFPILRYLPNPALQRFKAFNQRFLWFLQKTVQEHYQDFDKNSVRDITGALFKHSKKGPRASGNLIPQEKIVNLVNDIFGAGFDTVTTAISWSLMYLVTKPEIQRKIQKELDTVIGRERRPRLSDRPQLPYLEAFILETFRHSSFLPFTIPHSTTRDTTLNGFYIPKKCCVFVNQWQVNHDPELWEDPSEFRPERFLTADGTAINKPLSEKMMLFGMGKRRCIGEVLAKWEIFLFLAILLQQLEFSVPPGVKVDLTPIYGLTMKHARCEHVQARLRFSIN
Chain of Receptor-type tyrosine-protein kinase FLT3 (Homo sapiens) (P36888 whole entry): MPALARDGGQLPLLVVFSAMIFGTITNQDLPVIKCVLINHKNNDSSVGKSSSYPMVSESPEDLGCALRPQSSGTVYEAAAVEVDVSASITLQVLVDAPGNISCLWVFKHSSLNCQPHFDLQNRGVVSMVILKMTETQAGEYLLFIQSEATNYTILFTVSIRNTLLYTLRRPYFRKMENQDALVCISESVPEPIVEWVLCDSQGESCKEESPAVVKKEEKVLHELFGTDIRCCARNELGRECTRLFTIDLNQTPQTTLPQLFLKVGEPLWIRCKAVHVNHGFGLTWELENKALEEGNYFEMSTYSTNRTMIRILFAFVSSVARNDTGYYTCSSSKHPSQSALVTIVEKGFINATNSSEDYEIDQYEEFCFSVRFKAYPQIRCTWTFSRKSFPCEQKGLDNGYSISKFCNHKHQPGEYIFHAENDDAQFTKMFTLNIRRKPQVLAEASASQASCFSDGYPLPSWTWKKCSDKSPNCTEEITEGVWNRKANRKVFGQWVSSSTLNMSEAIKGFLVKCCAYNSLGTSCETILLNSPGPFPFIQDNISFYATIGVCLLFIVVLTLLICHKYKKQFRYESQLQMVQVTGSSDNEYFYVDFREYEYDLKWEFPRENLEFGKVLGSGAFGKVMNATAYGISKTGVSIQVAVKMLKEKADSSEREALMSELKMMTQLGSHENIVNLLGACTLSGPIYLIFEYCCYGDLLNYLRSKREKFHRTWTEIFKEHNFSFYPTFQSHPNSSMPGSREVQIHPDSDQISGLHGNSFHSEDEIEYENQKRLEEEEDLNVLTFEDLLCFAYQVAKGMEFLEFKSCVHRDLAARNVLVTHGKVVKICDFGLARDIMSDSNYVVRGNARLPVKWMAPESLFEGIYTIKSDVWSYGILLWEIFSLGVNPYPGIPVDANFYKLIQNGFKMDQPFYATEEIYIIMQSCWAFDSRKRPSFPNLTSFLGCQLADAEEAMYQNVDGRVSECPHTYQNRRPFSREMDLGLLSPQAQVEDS

O=C(Nc1ccc(CN2CCN(c3ccccc3)CC2)cc1)c1n[nH]c2ccccc12 gave an inhibition at 10 µM (CYP2D6) of 62%, a Ratio IC50 (Homo sapiens [1]) of 45 and an inhibition at 0.5 h, 10 µM (CYP1A2) of 36%. The Ratio IC50 (Homo sapiens [2]) was 15, the inhibition [3] was “Dose-dependent effect” and the solubility thermodynamic at 24 h, 200 µM [4] was 3 µM (≈ 1.23 µg/mL).
